# Calls of active or inactive are those of the source. The rule behind the calls is not given here.
# Test system: RAW264.7
# Test: Inhibition of LPS/IFNgamma -induced NO production in mouse RAW264.7 cells at 30 ug/ml after 16 hrs
# Format: functional, cell-based
# Conditions: not given
row,Compound,Activity
1,COc1ccc(C(=O)[C@H]2C(=O)O[C@](C)(CC/C=C(\C)CCC=C(C)C)[C@@H]2C)c(O)c1 (relative stereo),inactive
2,CC(C)=CCC/C(C)=C/CC[C@]1(C)OC(=O)[C@H](C(=O)c2ccc(O)cc2O)[C@H]1C (relative stereo),inactive

# Test system: RAW264.7
# Test: Inhibition of LPS/IFNgamma -induced NO production in mouse RAW264.7 cells after 16 hrs
# Format: functional, cell-based
# Conditions: RAW264.7, 16 h
row,IC50,Compound
1,6.7 µM,CC(C)=CC(=O)/C=C(\C)CCC[C@@]1(C)OC(=O)[C@H](C(=O)c2ccc(O)cc2O)[C@H]1C (relative stereo) [FUKANEDONE C]
2,27.8 µM,CC(C)=CC(=O)/C=C(/C)CCC[C@@]1(C)OC(=O)[C@H](C(=O)c2ccc(O)cc2O)[C@H]1C (relative stereo) [FUKANEDONE D]
3,113 µM,CCCCOC(=O)C(=O)c1ccc(O)cc1O [FUKANEKETOESTER A]
4,76.2 µM,COc1ccc(C(=O)[C@H]2C(=O)O[C@](C)(CC/C=C(\C)Cc3cc(C)co3)[C@@H]2C)c(O)c1 (relative stereo) [FUKANEDONE E]
